{
  "source": "patent US20090298915A1",
  "about": "“TOPICAL DRUG DELIVERY” (priority 2006, published 2009)",
  "key": {"[1]": {"test_system": "S91 Cloudman murine melanoma cells", "test": "Pigmentation assay (melanin synthesis)", "format": "cell-based", "conditions": "5 days culture, 10^−8 M and 10^−6 M", "procedure": "(§1) S91 Cloudman murine melanoma cells were cultured for 5 days in the presence or absence of αMSH compounds. All experiments were carried out in triplicate wells on three separate occasions. Following culture, cells were washed twice with PBS and then dissociated with cell dissociation solution (Sigma, UK). An aliquot of cells were counted using a haemocytometer, and the remaining cells pelleted by centrifugation prior to lysis of the pellet with 200 μl of 1M NaOH. Melanin concentrations were determined against a standard synthetic melanin dose range using a spectrophometric plate reader (emission 450-492 nm)."}, "[2]": {"test": "Ex vivo skin penetration, Franz diffusion chamber, mouse skin", "format": "in vitro ADME", "conditions": "fluorescein-labelled compounds, 10^−3 M, up to 3 hours", "source_text": "(§2) The penetration of the relevant compounds into mouse, pig and human skin was investigated using a Franz diffusion chamber system; this approach ensured a sealed system which prevented any leakage between the upper donor compartment and the lower receptor compartment. Circular full thickness skin samples (6 mm diameter) which had been cut with a punch biopsy blade were mounted into the diffusion chamber, with the stratum corneum facing upwards so that it was exposed to donor compartment, and with the receptor compartment filled with PBS. The compound under investigation was applied to the donor compartment so that it lay on the outer skin surface, and the chamber incubated at room temperature or at 37° C. for up to 3 hours. At the end of this incubation period, the remaining solution was removed from the upper compartment, and the skin washed three times with PBS. The skin was then bisected and half of it was snap frozen in liquid nitrogen for cryosectioning whereas the other half was fixed in 4% paraformaldehyde for 3 hours prior to paraffin blocking for cutting tissue sections. The skin sections were mounted on glass and visualised under fluorescent microscopy.\n(§3) Penetration of αMSH into skin was examined using an ex-vivo mouse, pig and human skin model. […]"}, "[3]": {"test": "Ex vivo skin penetration, Franz diffusion chamber, pig skin", "format": "in vitro ADME", "conditions": "fluorescein-labelled compounds, 10^−3 M, up to 3 hours", "source_text": "as §2, §3"}, "[4]": {"test": "Ex vivo skin penetration, Franz diffusion chamber, human skin", "format": "in vitro ADME", "conditions": "fluorescein-labelled compounds, 10^−3 M, up to 3 hours", "source_text": "as §2, §3"}, "[5]": {"test_system": "B16F10 cells", "test": "Transport into B16F10 cells, fluorescence and confocal microscopy", "format": "cell-based, murine", "conditions": "TyrPNA-PPL-fluo at 3×10^−5 M and at 10^−4 M", "procedure": "Experiments to investigate the transport of each compound into cells in culture were performed at 3 hours and 24 hours. Cells were seeded (at 1×10^5 cells per well for 3 hours treatment or 5×10^4 cells per well for 24 hours treatment) on 1% (w/v) poly-L-lysine coated glass coverslips in 12 well plates and incubated overnight at 5% CO2 and 37° C.; poly-L-lysine coating of glass coverslips was employed to prevent the fluo-labelled PPL compounds adhering to the glass and causing background fluorescence. Cells were then washed with PBS, and incubated at 5% CO2 and 37° C. with the compound in the medium for 3 hours or 24 hours. The medium was subsequently removed and the cells washed twice with PBS, prior to fixation with 4% paraformaldehyde for 7 minutes, and then fixation was stopped with 50 mM ammonium chloride for 10 minutes. Cells were subsequently washed twice with PBS, and coverslips were mounted (with the cells facing downwards) onto a glass slide with vectashield, and the edges sealed with clear nail varnish to prevent drying. Fluorescence was detected by fluorescence microscopy and/or confocal microscopy. […]\nFluorescently-tagged compounds were used as noted above and intracellular fluorescence recorded as a measure of penetration."}, "[6]": {"test_system": "B16F10 murine melanoma cells", "test": "Pigmentation assay in alphaMSH-stimulated B16F10 cells", "format": "cell-based", "conditions": "B16F10, 48 hours, αMSH 10^−10 M, compound 10^−5 M", "procedure": "as §1\nB16F10 murine melanoma cells were cultured for 48 hours in the presence or absence of αMSH (10^−10 M) with or without TyrPNA or TyrASO and separately with or without TyrPNA-PPL or TyrASO-PPL. Pigmentation was assessed as described above."}},
  "data": [
    {"substance": "Fluo-Ahx-SYSMEHFRWGKPV-NH2 [Fluo-MSH]", "values": [
      {"measurement": "melanin synthesis by melanoma cells, potency compared with αMSH", "setting": "[1]", "value": "stimulated melanin synthesis by melanoma cells with similar potency to αMSH"},
      {"measurement": "penetration into mouse skin ex vivo", "setting": "[2]", "value": "did not penetrate into skin (except on a single occasion in mouse skin)"},
      {"measurement": "penetration into pig skin ex vivo", "setting": "[3]", "value": "did not penetrate into skin"},
      {"measurement": "penetration into human skin ex vivo", "setting": "[4]", "value": "did not penetrate into skin"}
    ]},
    {"substance": "TyrPNA-fluo: fluorescein-labelled TyrPNA, FIG. 8 (GAACATTTTCTCCTT; all peptide nucleic acid (PNA); further chemistry not fully specified)", "values": [
      {"measurement": "penetration into human skin ex vivo", "setting": "[4]", "value": "did not penetrate into skin"},
      {"measurement": "penetration into B16F10 cells (intracellular fluorescence)", "setting": "[5]", "value": "did not penetrate into B16F10 cells"}
    ]},
    {"substance": "TyrPNA: 15 mer antisense peptide nucleic acid (GAA CAT TTT CTC CTT; SEQ. ID no. 1) targeting murine tyrosinase, modified as in FIG. 7 (antisense GAACATTTTCTCCTT; all peptide nucleic acid (PNA); further chemistry not fully specified) [15 mer antisense peptide nucleic acid (GAA CAT TTT CTC CTT; ID no]", "values": [
      {"measurement": "darkening of the cell pellet induced by αMSH", "setting": "[6]", "value": "did not prevent the increased production of melanin"}
    ]}
  ]
}
